# Source: patent US6864217B2, “Herbicidal compositions with substituted phenylsulfonylureas for controlling weeds in rice” (Hoechst Schering AgrEvo GmbH, priority 1998, dated 2005)
# Assays:
# [1] = tested on: Oryza sativa; assay: Table 14 greenhouse trial, treatment at the 3-4 leaf stage: rice damage; format: in vivo; settings: 21 days after application
# Experimental: (§1) Seeds or rhizome pieces of mono- and dicotyledonous weed plants are placed into sandy loam soil in plastic pots, covered with soil and grown in a greenhouse under good growth conditions (temperature, atmospheric humidity, water supply). Weeds which are encountered in the cultivation of rice are cultivated in pots in which the water level is up to 2 cm over the soil surface. Three weeks after sowing, the test plants are treated at the three-leaf stage. The active compound combinations according to the invention, formulated as wettable powders or emulsion concentrates, and, in parallel experiments, the correspondingly formulated individual active compounds are sprayed onto the green parts of the plants at different dosages using an amount of water of 300 to 600 l/ha (converted), and, after about 3 to 4 weeks of the test plants in the greenhouse under optimum growth conditions (temperature, atmospheric humidity, water supply), the effect of the preparations is evaluated visually in comparison to untreated controls. In the case of rice or weeds which are encountered in the cultivation of rice, the active compounds are also added directly to the water for irrigation (application analogous to the so-called granules application) or sprayed onto plants and added to the water for irrigation. The experiments were designed with several, up to five, repetitions. The herbicidal compositions according to the invention also have good herbicidal post-emergence activity against a broad spectrum of economically important weed grasses and broad-leaved weeds.
# (§2) Greenhouse trial: Treatment at the 3-4 leaf stage, evaluation 21 days after the application.
# [2] = tested on: Sagittaria pygmaea; assay: Table 14 greenhouse trial, treatment at the 3-4 leaf stage: weed control; format: in vivo; settings: 21 days after application
# Experimental: as §1, §2
# [3] = tested on: Oryza sativa; assay: Table 10 greenhouse trial, treatment at the 1-2 leaf stage: rice damage; format: in vivo; settings: greenhouse trial, 20 days after application
# Experimental: as §1
# (§3) Greenhouse trial: Treatment at the 1-2 leaf stage, evaluation 20 days after the application.
# [4] = tested on: Scirpus juncoides; assay: Table 10 greenhouse trial, treatment at the 1-2 leaf stage: weed control; format: in vivo; settings: 20 days after application
# Experimental: as §1, §3
# [5] = tested on: Scirpus maritimus; assay: Table 15 greenhouse trial, treatment at the 2-3 leaf stage: weed control; format: in vivo; settings: 20 days after application
# Experimental: as §1
# [6] = tested on: Oryza sativa; assay: Table 15 greenhouse trial, treatment at the 2-3 leaf stage: rice damage; format: in vivo; settings: 20 days after application
# Experimental: as §1
# [7] = tested on: Sagittaria pygmaea; assay: Table 13 greenhouse trial, treatment at the 5-6 leaf stage: weed control; format: in vivo; settings: 20 days after application
# Experimental: as §1
# (§4) Greenhouse trial: Treatment at the 5-6 leaf stage, evaluation 20 days after the application.
# [8] = tested on: Oryza sativa; assay: Table 13 greenhouse trial, treatment at the 5-6 leaf stage: rice damage; format: in vivo; settings: 20 days after application
# Experimental: as §1, §4
# [9] = tested on: Oryza sativa; assay: Table 2 field trial, treatment at the 1-2 leaf stage rice: rice damage; settings: 28 days after application
# Experimental: (§8) The examples mentioned below were carried out in the greenhouse, and in some instances, in field trials.
# [10] = tested on: Echinochloa crusgalli; assay: Table 18 field trial, treatment at the 1-2 leaf stage: weed control; format: in vivo; settings: 14 days after application
# From the text: (§5) Field trial: Treatment at the 1-2 leaf stage, evaluation 14 days after the application.
# [11] = tested on: Leptochloa filiformis; assay: Table 2a field trial, treatment at the 2-3 leaf stage weed grasses: weed control; format: in vivo; settings: 28 days after application
# Experimental: as §8
# [12] = tested on: Cyperus irria; assay: Table 3 field trial, treatment at the 2 leaf stage weed grasses: weed control; format: in vivo; settings: 28 days after application
# Experimental: as §8
# [13] = tested on: Oryza sativa; assay: Table 18 field trial, treatment at the 1-2 leaf stage: rice damage; format: in vivo; settings: 14 days after application
# From the text: as §5
# [14] = tested on: ECHCO; assay: Table 2 field trial, treatment at the 2-3 leaf stage weed grasses: weed control; format: in vivo, Echinochloa colona; settings: 28 days after application
# Experimental: as §8
# [15] = tested on: Oryza sativa; assay: Table 2a field trial, treatment at the 1-2 leaf stage rice: rice damage; settings: 28 days after application
# Experimental: as §8
# [16] = tested on: Eleusine indica; assay: Table 2 field trial, treatment at the 2-3 leaf stage weed grasses: weed control; format: in vivo; settings: 28 days after application
# Experimental: as §8
# [17] = tested on: Oryza sativa; assay: Table 3 field trial, treatment at the 4-5 leaf stage (seed rice): rice damage; settings: 28 days after application
# Experimental: as §8
# [18] = tested on: Cyperus iria; assay: Table 23 field trial, treatment: 4-6 leaf stage: weed control; format: in vivo; settings: 36 days after application
# From the text: (§6) Field trial: Treatment: 4-6 leaf stage, evaluation 36 days after the application.
# [19] = tested on: Oryza sativa; assay: Table 23 field trial, treatment: 4-6 leaf stage: rice damage; format: in vivo; settings: 36 days after application
# From the text: as §6
# [20] = tested on: Cyperus serotinus; assay: Table 16 greenhouse trial, treatment at the 2-3 leaf stage: weed control; format: in vivo; settings: 20 days after application
# Experimental: as §1
# (§7) Greenhouse trail: Treatment at the 2-3 leaf stage, evaluation 20 days after the application.
# [21] = tested on: Oryza sativa; assay: Table 16 greenhouse trial, treatment at the 2-3 leaf stage: rice damage; format: in vivo; settings: 20 days after application
# Experimental: as §1, §7
# [22] = tested on: Echinochloa crusgalli; assay: Table 17 field trial, treatment at the 2 leaf stage: weed control; format: in vivo; settings: 14 days after application
# From the text: Field trial: Treatment at the 2 leaf stage, evaluation 14 days after the application.
structure (smiles),measurement,setting,value
"CCCOCCN(C(=O)CCl)c1c(CC)cccc1CC [B4), 2-chloro-N-(2,6-diethylphenyl)-N-(2-propoxyethyl)acetamide]",ORYSW % damage,[1]; 125 g of ai/ha,15%
same,ORYSW % damage,[1]; 250 g of ai/ha,15%
same,ORYSW % damage,[1]; 500 g of ai/ha,35%
same,SAGPY % control,[2]; 125 g of ai/ha,65%
same,SAGPY % control,[2]; 250 g of ai/ha,70%
same,SAGPY % control,[2]; 500 g of ai/ha,75%
"COc1cc(OC)nc(NC(=O)NS(=O)(=O)c2c(C(=O)O)cnn2C)n1 [B59), 5-[[[[(4,6-dimethoxy-2-pyrimidinyl)amino]carbonyl]-amino]sulfonyl]-1-methyl-1H-pyrazol-4-carboxylic acid]",ORYSW % damage,[3]; 7.5 g of ai/ha,0%
same,ORYSW % damage,[3]; 15 g of ai/ha,0%
same,ORYSW % damage,[3]; 30 g of ai/ha,2%
same,SCIJU % control,[4]; 7.5 g of ai/ha,50%
same,SCIJU % control,[4]; 15 g of ai/ha,55%
same,SCIJU % control,[4]; 30 g of ai/ha,60%
"COc1cc(OC)nc(NC(=O)NS(=O)(=O)c2c(-c3nnn(C)n3)cnn2C)n1 [B64), azimsulfuron]",SCIMA % control,[5]; 5 g of ai/ha,78%
same,SCIMA % control,[5]; 9 g of ai/ha,80%
same,SCIMA % control,[5]; 18 g of ai/ha,83%
same,SCIMA % control,[5]; 37 g of ai/ha,85%
same,ORYSW % damage,[6]; 5 g of ai/ha,3%
same,ORYSW % damage,[6]; 9 g of ai/ha,8%
same,ORYSW % damage,[6]; 18 g of ai/ha,10%
same,ORYSW % damage,[6]; 37 g of ai/ha,10%
"CCN(C(=O)n1nnn(-c2ccccc2Cl)c1=O)C1CCCCC1 [B17), 4-(2-chlorophenyl)-5-oxo-4,5-dihydro-tetrazole-1-carboxylic acid cyclohexyl-ethyl-amide]",SAGPY % control,[7]; 50 g of ai/ha,0%
same,SAGPY % control,[7]; 100 g of ai/ha,40%
same,SAGPY % control,[7]; 200 g of ai/ha,80%
same,ORYSW % damage,[8]; 50 g of ai/ha,0%
same,ORYSW % damage,[8]; 100 g of ai/ha,0%
same,ORYSW % damage,[8]; 200 g of ai/ha,0%
"CCOc1ccccc1OS(=O)(=O)NC(=O)Nc1nc(OC)cc(OC)n1 [B63a), ethoxysulfuron]",ORYSW % damage,[9]; 45 g of ai/ha,10%
same,ORYSW % damage,[9]; 60 g of ai/ha,10%
same,ECHCG % control,[10]; 5 g of ai/ha,7%
same,ECHCG % control,[10]; 10 g of ai/ha,7%
same,LEFFI % control,[11]; 45 g of ai/ha,0%
same,LEFFI % control,[11]; 60 g of ai/ha,0%
same,CYPIR % control,[12]; 22.5 g of ai/ha,60%
same,CYPIR % control,[12]; 45 g of ai/ha,95%
same,ORYSW % damage,[13]; 5 g of ai/ha,7%
same,ORYSW % damage,[13]; 10 g of ai/ha,7%
same,ECHCO % control,[14]; 45 g of ai/ha,0%
same,ECHCO % control,[14]; 60 g of ai/ha,0%
same,ORYSW % damage,[15]; 45 g of ai/ha,10%
same,ORYSW % damage,[15]; 60 g of ai/ha,10%
same,ELEIN % control,[16]; 45 g of ai/ha,0%
same,ELEIN % control,[16]; 60 g of ai/ha,0%
same,ORYSW % damage,[17]; 22.5 g of ai/ha,0%
same,ORYSW % damage,[17]; 45 g of ai/ha,0%
"CC(C)N1C(=O)c2ccccc2NS1(=O)=O [B39), 3-isopropyl-1H-2,1,3-benzothiadiazin-4(3H)-one-2,2-dioxide]",CYPIR % control,[18]; 250 g of ai/ha,42%
same,CYPIR % control,[18]; 400 g of ai/ha,78%
same,CYPIR % control,[18]; 800 g of ai/ha,97%
same,ORYSW % damage,[19]; 250 g of ai/ha,0%
same,ORYSW % damage,[19]; 400 g of ai/ha,0%
same,ORYSW % damage,[19]; 800 g of ai/ha,3%
"COc1cc(OC)nc(Oc2cccc(Oc3nc(OC)cc(OC)n3)c2C(=O)ON=C(c2ccccc2)c2ccccc2)n1 [B72), pyribenzoxim]",CYPSE % control,[20]; 18.75 g of ai/ha,25%
same,CYPSE % control,[20]; 37.5 g of ai/ha,35%
same,CYPSE % control,[20]; 75 g of ai/ha,60%
same,ORYSW % damage,[21]; 18.75 g of ai/ha,3%
same,ORYSW % damage,[21]; 37.5 g of ai/ha,8%
same,ORYSW % damage,[21]; 75 g of ai/ha,8%
"C#CCOc1cc(-n2nc(C(C)(C)C)oc2=O)c(Cl)cc1Cl [B51), 5-tert-butyl-3-[2,4-dichloro-5-(prop-2-ynyloxy)-phenyl]-1,3,4-oxadiazol-2(3H)-one]",ECHCG % control,[22]; 25 g of ai/ha,37%
same,ECHCG % control,[22]; 50 g of ai/ha,63%
same,ECHCG % control,[22]; 100 g of ai/ha,63%
same,ECHCG % control,[22]; 200 g of ai/ha,80%
